Results from patent US6989384B2, “Antipicornaviral compounds and compositions, their pharmaceutical uses, and materials for their synthesis” (Agouron Pharmaceuticals, Inc., priority 2000, dated 2006).
Like-named read-outs stand apart in the source and are kept apart here.

Legend:
HRV-14 = experiment: Antirhinoviral H1-HeLa cell culture assay (cell protection, XTT), HRV-14; assay type: cell-based, human rhinovirus; conditions: Rhinovirus B, read-out: Cell Protection EC50
Experimental: (§1) In this cell protection assay, the ability of compounds to protect cells against HRV infection was measured by the XTT dye reduction method, which is described in Weislow et al., J. Natl. Cancer Inst. 1989, vol. 81, 577–586.
(§2) H1-HeLa cells were infected with HRV-14 at a multiplicity of infection (m.o.i.) of 0.13 (virus particles/cell) or mock-infected with medium only. Infected or mock-infected cells were resuspended at 8×10^5 cells per mL, and incubated with appropriate concentrations of the compounds to be tested. Two days later, XTT/PMS was added to test plates and the amount of formazan produced was quantified spectrophotometrically at 450/650 nm. The EC50 value was calculated as the concentration of compound that increased the percentage of formazan production in compound-treated, virus-infected cells to 50% of that produced by compound-free, mock-infected cells. The 50% cytotoxic dose (CC50) was calculated as the concentration of compound that decreased the percentage of formazan produced in compound-treated, mock-infected cells to 50% of that produced by compound-free, mock-infected cells.
(§3) All strains of human rhinovirus (HRV) for use in this assay were purchased from American Type Culture Collection (ATCC), except for HRV serotype-14 (produced from the infectious cDNA clone constructed by Dr. Robert Rueckert, Institute for Molecular Virology, University of Wisconsin, Madison, Wis.). HRV stocks were propagated and viral assays were performed in H1-HeLa cells (ATCC). Cells were grown in minimal essential medium with 10% fetal bovine serum, available from Life Technologies (Gaithersburg, Md.).
The compounds were tested against control compounds WIN 51711, WIN 52084, and WIN 54954 (obtained from Sterling-Winthrop Pharmaceuticals), Pirodavir (obtained from Janssen Pharmaceuticals), and Pleconaril (prepared according to the method described in Diana et al., J. Med. Chem 1995, vol. 38, 1355). Antiviral data obtained for the test compounds are shown in the Table, where all data are for HRV serotype-14 unless otherwise noted in parentheses.

[1] = target: T1, rhinovirus 3C protease from HRV serotype-14 (Human rhinovirus 14, UniProt P03303); experiment: Inhibition of rhinovirus 3C protease activity (FRET assay), HRV-14; assay type: biochemical; conditions: read-out: Protease Inhibition kobs/I
T1 construct: Recombinant rhinovirus 3C proteases; made in house
Experimental: Stock solutions (50 mM, in DMSO) of various compounds were prepared; dilutions were in the same solvent. Recombinant rhinovirus 3C proteases (see Birch et al., “Purification of recombinant human rhinovirus 14 3C protease expressed in Escherichia coli,” Protein Expr. Pur. 1995, 6(5), 609–618) from serotypes 14, 16, and 2 were prepared by the following standard chromatographic procedures: (1) ion exchange using Q Sepharose Fast Flow from Pharmacia; (2) affinity chromatography using Affi-Gel Blue from Biorad; and (3) sizing using Sephadex G-100 from Pharmacia. Each assay sample contained 2% DMSO, 50 mM tris pH 7.6, 1 mM EDTA, a test compound at the indicated concentration, approximately 1 μM substrate, and 50–100 nM protease. The kobs/I values were obtained from reactions initiated by addition of enzyme rather than substrate. RVP activity was measured in the fluorescence resonance energy transfer assay. The substrate was (N-terminal) DABCYL-(Gly-Arg-Ala-Val-Phe-Gln-Gly-Pro-Val-Gly)-EDANS. In the uncleaved peptide, the EDANS fluorescence was quenched by the proximal DABCYL group. When the peptide was cleaved, the quenching was relieved, and activity was measured as an increase in fluorescence signal. In the Table, unless otherwise indicated, all data are for rhinovirus 3C protease from HRV serotype-14 (produced from the infectious cDNA clone constructed by Dr. Robert Rueckert, Institute for Molecular Virology, University of Wisconsin, Madison, Wis.). The data in the column designated kobs/[I] were measured from progress curves in enzyme start experiments.

[2] = Cytotoxicity in mock-infected H1-HeLa cells (XTT); assay type: cell-based; conditions: human, two days, read-out: Toxicity CC50
Experimental: as §1, §2, §3

[3] = HRV14, 48 h, HRV-14, H1-HeLa cells, XTT, two days
[4] = HRV-14 3C protease, progress curves, enzyme start

T1 sequence (P03303 1538-1719): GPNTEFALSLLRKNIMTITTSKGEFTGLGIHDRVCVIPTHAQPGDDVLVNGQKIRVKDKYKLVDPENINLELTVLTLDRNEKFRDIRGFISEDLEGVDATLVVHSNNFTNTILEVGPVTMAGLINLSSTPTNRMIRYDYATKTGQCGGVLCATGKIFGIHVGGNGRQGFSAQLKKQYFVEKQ

SMILES	EC50 (HRV-14; [3]) [µM]	kinact/KI [1, 4] [M⁻¹ s⁻¹]	CC50 at 2 days [2] [µM]	EC50 (HRV-14; HRV14, H1-HeLa, 48 h) [µM]	kinact/KI [1] [M⁻¹ s⁻¹]
CCOC(=O)/C=C/[C@H](CCC(N)=O)NC(=O)/C=C/c1cccc(Br)c1 [Compound 30, 4S-[3-(3-bromophenyl)-acryloylamino]-6-carbamoyl-hex-2-enoic acid ethyl ester]	3.2	345	> 100	–	–
CCOC(=O)/C=C/[C@H](C[C@@H]1CCNC1=O)NC(=O)Nc1cccc2ccccc12 [Compound 56, 4S-(3-naphthalen-1-yl)-5-(2-oxo-pyrrolidin-3S-yl)-pent-2-enoic acid ethyl ester]	–	–	> 10	> 10	117
CCOC(=O)/C=C/[C@H](CCC(N)=O)NC(=O)c1ccc(Cl)c(Cl)c1 [Compound 35, 6-carbamoyl-4S-(3,4-dichloro-benzoylamino)-hex-2-enoic acid ethyl ester]	> 100	35	100	–	–
CCOC(=O)/C=C/[C@H](C[C@@H]1CCNC1=O)NC(=O)/C=C/c1ccc([N+](=O)[O-])cc1 [Compound 15, 4S-[3-(4-nitro-phenyl)-acryloylamino]-5-(2-oxo-pyrrolidin-3S-yl)-pent-2-enoic acid ethyl ester]	–	–	> 10	1.53	2020
CCOC(=O)/C=C/[C@H](CCC(N)=O)NC(=O)c1cc(C(C)(C)C)nn1Cc1ccccc1 [Compound 33, 4S-[(2-benzyl-5-tert-butyl-2H-pyrazole-3-carbonyl)-amino]-6-carbamoyl-hex-2-enoic acid ethyl ester]	12.6	27	> 100	–	–
CCOC(=O)/C=C/[C@H](C[C@@H]1CCNC1=O)NC(=O)Nc1cc(OC)cc(OC)c1 [Compound 57, 4S-[3-(3,5-dimethoxy-phenyl)ureido]-5-(2-oxo-pyrrolidin-3S-yl)-pent-2-enoic acid ethyl ester]	–	–	> 10	> 10	388
CCOC(=O)c1ccc(OCCC2CCN(c3ccc(C)nn3)CC2)cc1 [Pirodavir, reference compound]	0.03	–	> 10	–	–
CCOC(=O)/C=C/[C@H](C[C@@H]1CCNC1=O)NC(=O)/C=C/c1ccc(C)c(Br)c1 [Compound 23, 4S-[3-(3-bromo-4-methyl-phenyl)-acryloylamino]-5-(2-oxo-pyrrolidin-3S-yl)-pent-2-enoic acid ethyl ester]	–	–	> 10	1.29	4080
CCOC(=O)/C=C/[C@H](CCC(N)=O)NC(=O)c1ccc(N(C)C)cc1 [Compound 27]	3.9	45	> 100	–	–
Cc1cc(CCCOc2c(C)cc(-c3noc(C(F)(F)F)n3)cc2C)on1 [Pleconaril, reference compound]	0.01	–	> 10	–	–
CCOC(=O)/C=C/[C@H](CCC(N)=O)NC(=O)c1ccccc1CCc1ccccc1 [Compound 37, 6-carbamoyl-4S-(2-phenethyl-benzoylamino)-hex-2-enoic acid ethyl ester]	> 100	6	> 100	–	–
CCOC(=O)/C=C/[C@H](C[C@@H]1CCNC1=O)NC(=O)/C=C/c1ccc(C)cc1 [Compound 12, 5-(2-oxo-pyrrolidin-3S-yl)-4S-(3-p-tolyl-acryloylamino)-pent-2-enoic acid ethyl ester]	–	–	> 10	2.77	990
CCOC(=O)/C=C/[C@H](C[C@@H]1CCNC1=O)NC(=O)/C=C/c1ccc2c(c1)OCO2 [Compound 9, 4S-(3-benzo[1,3]dioxol-5-yl-acryloylamino)-5-(2-oxo-pyrrolidin-3S-yl)-pent-2-enoic acid ethyl ester]	–	–	> 10	1.81	1960
CCOC(=O)/C=C/[C@H](C[C@@H]1CCNC1=O)NC(=O)COc1cccc(Cl)c1 [Compound 61, 4S-[2-(3-chloro-phenoxy)-acetylamino]-5-(2-oxo-pyrrolidin-35-yl)-pent-2-enoic acid ethyl ester]	–	103	–	–	–
CCOC(=O)/C=C/[C@H](C[C@@H]1CCNC1=O)NC(=O)c1cc2cc(Br)ccc2o1 [Compound 14, 4S-[(5-bromo-benzofuran-2-carbonyl)-amino]-5-(2-oxo-pyrrolidin-3S-yl)-pent-2-enoic acid ethyl ester]	–	219	–	–	–
CCOC(=O)/C=C/[C@H](C[C@@H]1CCNC1=O)NC(=O)c1cc2ccccc2[nH]1 [Compound 47, 4S-[(1H-Indole-2-carbonyl)-amino]-5-(2-oxo-pyrrolidin-3S-yl)-pent-2-enoic acid ethyl ester]	–	283	–	–	–
CCOC(=O)/C=C/[C@H](C[C@@H]1CCNC1=O)NC(=O)c1ccc(C(=O)OC)cc1 [Compound 4, N-[3-ethoxycarbonyl-1S-(2-oxo-pyrrolidin-3R-ylmethyl)-ally]-terephthalamic acid methyl ester]	–	258	–	–	–
CCOC(=O)/C=C/[C@H](C[C@@H]1CCNC1=O)NC(=O)Nc1ccccc1Oc1ccccc1 [Compound 55, 5-(2-oxo-pyrrolidin-3S-yl)-4S-[3-(2-phenoxy-phenyl)-ureido]-pent-2-enoic acid ethyl ester]	–	200	–	–	–
CCOC(=O)/C=C/[C@H](C[C@@H]1CCNC1=O)NC(=O)/C=C/c1cccc(O)c1 [Compound 17, 4S-[3-(3-hydroxy-phenyl)-acryloylamino]-5-(2-oxo-pyrrolidin-3S-yl)-pent-2-enoic acid ethyl ester]	–	315	–	–	–
CCOC(=O)/C=C/[C@H](C[C@@H]1CCNC1=O)NC(=O)/C=C/C(=O)Nc1c(C)cc(C)cc1C [Compound 50, 5-(2-Oxo-pyrrolidin-3S-yl)-4S-[3-(2,4,6-trimethylphenylcarbamoyl)-acryloylamino]-pent-2-enoic acid ethyl ester]	–	225	–	–	–
CCOC(=O)/C=C/[C@H](C[C@@H]1CCNC1=O)NC(=O)c1cncc(Br)c1 [Compound 6, 4S-[(5-bromo-pyridine-3-carbonyl)-amino]-5-(2-oxo-pyrrolidin-3S-yl)-pent-2-enoic acid ethyl ester]	–	79	–	–	–
CCOC(=O)/C=C/[C@H](C[C@@H]1CCNC1=O)NC(=O)/C=C/c1ccc(OC)c(OC)c1 [Compound 5, 4S-[3-(3,4-dimethoxy-phenyl)-acryloylamino]-5-(2-oxo-pyrrolidin-3S-yl)-pent-2-enoic acid ethyl ester]	–	173	–	–	–
CCOC(=O)/C=C/[C@H](C[C@@H]1CCNC1=O)NC(=O)/C=C/c1cc(Br)ccc1Br [Compound 64, 4S-[3-(2,5-dibromo-phenyl)-acryloylamino]-5-(2-oxo-pyrrolidin-3S-yl)-pent-2-enoic acid ethyl ester]	–	6850	–	–	–
CCOC(=O)/C=C/[C@H](C[C@@H]1CCNC1=O)NC(=O)c1cc2cc(OC)c(OCc3ccccc3)cc2[nH]1 [Compound 46, 4S-[(6-Benzyloxy-5-methoxy-1H-indole-2-carbonyl)-amino]-5-(2-oxo-pyrrolidin-3S-yl)-pent-2-enoic acid ethyl ester]	–	1830	–	–	–
CCOC(=O)/C=C/[C@H](C[C@@H]1CCNC1=O)NC(=O)C1CSC(c2ccccc2)N1C(C)=O (stereo partly drawn) [Compound 13, 4S-[(3-acetyl-2-phenyl-thiazolidine-4-carbonyl)-amino]-5-(2-oxo-pyrrolidin-3S-yl)-pent-2-enoic acid ethyl ester]	–	169	–	–	–
CCOC(=O)/C=C/[C@H](C[C@@H]1CCNC1=O)NC(=O)COc1cccc(OC)c1 [Compound 60, 4S-[2-(3-methoxy-phenoxy)-acetylamino]-5-(2-oxo-pyrrolidin-3S-yl)-pent-2-enoic acid ethyl ester]	–	77	–	–	–
